Values joined by “and” are separate entries in the source; they are usually repeats but may differ in a detail not shown here. Equal values may be shown once. “Also recorded” adds a separate entry of the source.
Key:
[1] = test system: BmGr9 I440A; assay: GCaMP calcium flux assay, BmGr9 I440A; format: cell-based, Bombyx mori
[2] = test system: BmGr9 F444A; assay: GCaMP calcium flux assay, BmGr9 F444A; format: cell-based, Bombyx mori
[3] = test system: BmGr9 W193F; assay: GCaMP calcium flux assay, BmGr9 W193F; format: cell-based, Bombyx mori
[4] = molecular target: BmGr9 Q443D_Q445K (Bombyx mori, UniProt B3GTD7, Q443D/Q445K); assay: GCaMP calcium flux assay, BmGr9 Q443D_Q445K; format: cell-based
Sequence of BmGr9 Q443D_Q445K (B3GTD7 entry or part of it Q443D/Q445K): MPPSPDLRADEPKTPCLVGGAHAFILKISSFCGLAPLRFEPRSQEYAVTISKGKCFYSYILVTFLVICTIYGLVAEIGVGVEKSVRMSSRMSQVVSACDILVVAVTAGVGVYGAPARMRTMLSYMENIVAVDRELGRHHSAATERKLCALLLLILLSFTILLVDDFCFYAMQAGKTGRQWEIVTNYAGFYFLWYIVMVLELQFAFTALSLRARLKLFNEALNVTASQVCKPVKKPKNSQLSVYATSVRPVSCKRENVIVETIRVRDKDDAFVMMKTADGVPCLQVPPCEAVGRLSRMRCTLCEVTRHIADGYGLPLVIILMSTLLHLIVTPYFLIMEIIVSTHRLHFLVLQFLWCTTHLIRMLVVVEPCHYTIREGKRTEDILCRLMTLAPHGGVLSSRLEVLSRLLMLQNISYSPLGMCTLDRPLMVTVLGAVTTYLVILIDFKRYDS

[5] = molecular target: BmGr9 Q443E_Q445A (Bombyx mori, UniProt B3GTD7, Q443E/Q445A); assay: GCaMP calcium flux assay, BmGr9 Q443E_Q445A; format: cell-based
Sequence of BmGr9 Q443E_Q445A (B3GTD7 entry or part of it Q443E/Q445A): as the sequence (B3GTD7 entry or part of it Q443D/Q445K) above, with D443E, K445A counted along it

[6] = molecular target: BmGr9 Q443D (Bombyx mori, UniProt B3GTD7, Q443D); assay: GCaMP calcium flux assay, BmGr9 Q443D; format: cell-based
Sequence of BmGr9 Q443D (B3GTD7 entry or part of it Q443D): as the sequence (B3GTD7 entry or part of it Q443D/Q445K) above, with K445Q counted along it

[7] = test system: BmGr9 Q443N; assay: GCaMP calcium flux assay, BmGr9 Q443N; format: cell-based, Bombyx mori
[8] = molecular target: T1, BmGr9 (Bombyx mori, UniProt B3GTD7); assay: Intrinsic tryptophan fluorescence of detergent-solubilized purified BmGr9; format: binding
T1 sequence (B3GTD7 entry or part of it): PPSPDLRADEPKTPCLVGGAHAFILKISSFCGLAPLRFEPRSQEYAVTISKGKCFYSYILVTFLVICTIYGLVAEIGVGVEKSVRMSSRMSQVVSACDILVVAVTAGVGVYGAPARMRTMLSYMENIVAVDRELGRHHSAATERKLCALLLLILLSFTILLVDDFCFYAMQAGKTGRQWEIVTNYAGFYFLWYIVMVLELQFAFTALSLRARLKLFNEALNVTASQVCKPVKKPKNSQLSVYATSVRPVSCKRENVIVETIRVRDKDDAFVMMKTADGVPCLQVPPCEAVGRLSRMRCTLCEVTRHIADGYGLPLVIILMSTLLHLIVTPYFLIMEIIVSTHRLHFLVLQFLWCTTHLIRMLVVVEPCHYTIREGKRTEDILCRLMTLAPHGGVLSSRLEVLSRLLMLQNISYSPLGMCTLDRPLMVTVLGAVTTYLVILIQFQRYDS

[9] = test system: BmGr9 Q445R; assay: GCaMP calcium flux assay, BmGr9 Q445R; format: cell-based, Bombyx mori
[10] = test system: BmGr9 D165E; assay: GCaMP calcium flux assay, BmGr9 D165E; format: cell-based, Bombyx mori
[11] = test system: BmGr9 T330A; assay: GCaMP calcium flux assay, BmGr9 T330A; format: cell-based, Bombyx mori
[12] = molecular target: BmGr9 Q443D_Q445R (Bombyx mori, UniProt B3GTD7, Q443D/Q445R); assay: GCaMP calcium flux assay, BmGr9 Q443D_Q445R; format: cell-based; settings: 95% CI in parentheses
Sequence of BmGr9 Q443D_Q445R (B3GTD7 entry or part of it Q443D/Q445R): as the sequence (B3GTD7 entry or part of it Q443D/Q445K) above, with K445R counted along it

[13] = test system: BmGr9 F333Y; assay: GCaMP calcium flux assay, BmGr9 F333Y; format: cell-based, Bombyx mori
[14] = molecular target: BmGr9 R86K (Bombyx mori, UniProt B3GTD7, R86K); assay: GCaMP calcium flux assay, BmGr9 R86K; format: cell-based
Sequence of BmGr9 R86K (B3GTD7 entry or part of it R86K): as the sequence (B3GTD7 entry or part of it Q443D/Q445K) above, with R86K, D443Q, K445Q counted along it

[15] = molecular target: BmGr9 Q351N (Bombyx mori, UniProt B3GTD7, Q351N); assay: GCaMP calcium flux assay, BmGr9 Q351N; format: cell-based
Sequence of BmGr9 Q351N (B3GTD7 entry or part of it Q351N): as the sequence (B3GTD7 entry or part of it Q443D/Q445K) above, with Q351N, D443Q, K445Q counted along it

[16] = test system: BmGr9 Q351E; assay: GCaMP calcium flux assay, BmGr9 Q351E; format: cell-based, Bombyx mori
[17] = molecular target: BmGr9 Q443E_Q445K (Bombyx mori, UniProt B3GTD7, Q443E/Q445K); assay: GCaMP calcium flux assay, BmGr9 Q443E_Q445K; format: cell-based
Sequence of BmGr9 Q443E_Q445K (B3GTD7 entry or part of it Q443E/Q445K): as the sequence (B3GTD7 entry or part of it Q443D/Q445K) above, with D443E counted along it

[18] = molecular target: BmGr9 T330V (Bombyx mori, UniProt B3GTD7, T330V); assay: GCaMP calcium flux assay, BmGr9 T330V; format: cell-based
Sequence of BmGr9 T330V (B3GTD7 entry or part of it T330V): as the sequence (B3GTD7 entry or part of it Q443D/Q445K) above, with T330V, D443Q, K445Q counted along it

[19] = test system: BmGr9 Y332Q; assay: GCaMP calcium flux assay, BmGr9 Y332Q; format: cell-based, Bombyx mori
[20] = test system: BmGr9 F333A; assay: GCaMP calcium flux assay, BmGr9 F333A; format: cell-based, Bombyx mori
[21] = molecular target: BmGr9 Y190F (Bombyx mori, UniProt B3GTD7, Y190F); assay: GCaMP calcium flux assay, BmGr9 Y190F; format: cell-based; settings: 95% CI in parentheses
Sequence of BmGr9 Y190F (B3GTD7 entry or part of it Y190F): as the sequence (B3GTD7 entry or part of it Q443D/Q445K) above, with Y190F, D443Q, K445Q counted along it

[22] = molecular target: BmGr9 Q351A (Bombyx mori, UniProt B3GTD7, Q351A); assay: GCaMP calcium flux assay, BmGr9 Q351A; format: cell-based
Sequence of BmGr9 Q351A (B3GTD7 entry or part of it Q351A): as the sequence (B3GTD7 entry or part of it Q443D/Q445K) above, with Q351A, D443Q, K445Q counted along it

[23] = test system: BmGr9 Y332L; assay: GCaMP calcium flux assay, BmGr9 Y332L; format: cell-based, Bombyx mori
[24] = test system: HEK293 cells transfected with GCaMP only; assay: Cell-based GCaMP calcium flux assay, GCaMP-only control cells
[25] = test system: BmGr9 W354F; assay: GCaMP calcium flux assay, BmGr9 W354F; format: cell-based, Bombyx mori
[26] = molecular target: BmGr9 Q445E (Bombyx mori, UniProt B3GTD7, Q445E); assay: GCaMP calcium flux assay, BmGr9 Q445E; format: cell-based
Sequence of BmGr9 Q445E (B3GTD7 entry or part of it Q445E): as the sequence (B3GTD7 entry or part of it Q443D/Q445K) above, with D443Q, K445E counted along it

[27] = test system: BmGr9 F189A; assay: GCaMP calcium flux assay, BmGr9 F189A; format: cell-based, Bombyx mori
[28] = molecular target: BmGr9 F189Y (Bombyx mori, UniProt B3GTD7, F189Y); assay: GCaMP calcium flux assay, BmGr9 F189Y; format: cell-based
Sequence of BmGr9 F189Y (B3GTD7 entry or part of it F189Y): as the sequence (B3GTD7 entry or part of it Q443D/Q445K) above, with F189Y, D443Q, K445Q counted along it

[29] = molecular target: BmGr9 Q445N (Bombyx mori, UniProt B3GTD7, Q445N); assay: GCaMP calcium flux assay, BmGr9 Q445N; format: cell-based
Sequence of BmGr9 Q445N (B3GTD7 entry or part of it Q445N): as the sequence (B3GTD7 entry or part of it Q443D/Q445K) above, with D443Q, K445N counted along it

[30] = test system: BmGr9 Q443A; assay: GCaMP calcium flux assay, BmGr9 Q443A; format: cell-based, Bombyx mori
[31] = test system: BmGr9 F333L; assay: GCaMP calcium flux assay, BmGr9 F333L; format: cell-based, Bombyx mori
[32] = test system: BmGr9 D99A; assay: GCaMP calcium flux assay, BmGr9 D99A; format: cell-based, Bombyx mori
[33] = test system: BmGr9 Y190A; assay: GCaMP calcium flux assay, BmGr9 Y190A; format: cell-based, Bombyx mori
[34] = molecular target: BmGr9 Q445A (Bombyx mori, UniProt B3GTD7, Q445A); assay: GCaMP calcium flux assay, BmGr9 Q445A; format: cell-based
Sequence of BmGr9 Q445A (B3GTD7 entry or part of it Q445A): as the sequence (B3GTD7 entry or part of it Q443D/Q445K) above, with D443Q, K445A counted along it

[35] = test system: BmGr9 D165N; assay: GCaMP calcium flux assay, BmGr9 D165N; format: cell-based, Bombyx mori
[36] = molecular target: BmGr9 Q443E (Bombyx mori, UniProt B3GTD7, Q443E); assay: GCaMP calcium flux assay, BmGr9 Q443E; format: cell-based
Sequence of BmGr9 Q443E (B3GTD7 entry or part of it Q443E): as the sequence (B3GTD7 entry or part of it Q443D/Q445K) above, with D443E, K445Q counted along it

[37] = molecular target: BmGr9 Y332F (Bombyx mori, UniProt B3GTD7, Y332F); assay: GCaMP calcium flux assay, BmGr9 Y332F; format: cell-based
Sequence of BmGr9 Y332F (B3GTD7 entry or part of it Y332F): as the sequence (B3GTD7 entry or part of it Q443D/Q445K) above, with Y332F, D443Q, K445Q counted along it

[38] = test system: BmGr9 Q445K; assay: GCaMP calcium flux assay, BmGr9 Q445K; format: cell-based, Bombyx mori
[39] = molecular target: BmGr9 Q443E_Q445R (Bombyx mori, UniProt B3GTD7, Q443E/Q445R); assay: GCaMP calcium flux assay, BmGr9 Q443E_Q445R; format: cell-based
Sequence of BmGr9 Q443E_Q445R (B3GTD7 entry or part of it Q443E/Q445R): as the sequence (B3GTD7 entry or part of it Q443D/Q445K) above, with D443E, K445R counted along it

[40] = molecular target: T1, BmGr9; assay: Cell-based GCaMP calcium flux assay, wild-type BmGr9
[41] = test system: BmGr9 H358Q; assay: GCaMP calcium flux assay, BmGr9 H358Q; format: cell-based, Bombyx mori
[42] = molecular target: BmGr9 T330S (Bombyx mori, UniProt B3GTD7, T330S); assay: GCaMP calcium flux assay, BmGr9 T330S; format: cell-based
Sequence of BmGr9 T330S (B3GTD7 entry or part of it T330S): as the sequence (B3GTD7 entry or part of it Q443D/Q445K) above, with T330S, D443Q, K445Q counted along it

[43] = test system: BmGr9 D165A; assay: GCaMP calcium flux assay, BmGr9 D165A; format: cell-based, Bombyx mori
[44] = molecular target: BmGr9 H358A (Bombyx mori, UniProt B3GTD7, H358A); assay: GCaMP calcium flux assay, BmGr9 H358A; format: cell-based
Sequence of BmGr9 H358A (B3GTD7 entry or part of it H358A): as the sequence (B3GTD7 entry or part of it Q443D/Q445K) above, with H358A, D443Q, K445Q counted along it

[45] = molecular target: BmGr9 P331A (Bombyx mori, UniProt B3GTD7, P331A); assay: GCaMP calcium flux assay, BmGr9 P331A; format: cell-based
Sequence of BmGr9 P331A (B3GTD7 entry or part of it P331A): as the sequence (B3GTD7 entry or part of it Q443D/Q445K) above, with P331A, D443Q, K445Q counted along it

[46] = test system: BmGr9 D99N; assay: GCaMP calcium flux assay, BmGr9 D99N; format: cell-based, Bombyx mori
[47] = molecular target: BmGr9 Y332A (Bombyx mori, UniProt B3GTD7, Y332A); assay: GCaMP calcium flux assay, BmGr9 Y332A; format: cell-based
Sequence of BmGr9 Y332A (B3GTD7 entry or part of it Y332A): as the sequence (B3GTD7 entry or part of it Q443D/Q445K) above, with Y332A, D443Q, K445Q counted along it

[48] = test system: BmGr9 R86A; assay: GCaMP calcium flux assay, BmGr9 R86A; format: cell-based, Bombyx mori

O=C(CO)[C@@H](O)[C@H](O)[C@H](O)CO [D-fructose]
activation by D-fructose (Fmax, Hill slope, EC50 fit) [1]: no activity
activation by D-fructose (Fmax, Hill slope, EC50 fit) [2]: no activity
activation by D-fructose (Fmax, Hill slope, EC50 fit) [3]: no activity
EC50 [4]: ~18 mM
Hill Slope ([4]; Q443D_Q445K, 95% CI in parentheses): 1.18 (0.24 to 2.87)
EC50 [5]: 1.53 mM
Hill Slope ([5]; Q443E_Q445A, 95% CI in parentheses): 1.58 (0.69 to 6.42)
EC50 [6]: 10 mM
Hill Slope ([6]; Q443D, 95% CI in parentheses): 1.52 (0.94 to 2.57)
activation by D-fructose (Fmax, Hill slope, EC50 fit) [7]: no activity
Kd ([8]; KD (apparent affinity, tryptophan fluorescence), purified BmGr9 in digitonin, n = 4, 95% CI in parentheses): 16 mM and 15.8 mM
Trp fluorescence emission maximum ([8]; saturating D-fructose, maximum near 330 nm without sugar): 324 nm
activation by D-fructose (Fmax, Hill slope, EC50 fit) [9]: no activity
F max [10]: ~0.12
activation by D-fructose (printed in Hill Slope column) [10]: no activity
activation by D-fructose (Fmax, Hill slope, EC50 fit) [11]: no activity
Hill Slope [12]: 0.31 (0.13 to 1.13)
activation by D-fructose (Fmax, Hill slope, EC50 fit) [13]: no activity
EC50 [14]: 10.4 mM
Hill Slope ([14]; R86K): ~2.45
EC50 [15]: ~8 mM
Hill Slope ([15]; Q351N): ~0.71
activation by D-fructose (Fmax, Hill slope, EC50 fit) [16]: no activity
EC50 [17]: 5.1 mM
Hill Slope ([17]; Q443E_Q445K, 95% CI in parentheses): 2.28 (1.51 to 3.62)
EC50 [18]: ~98 mM
Hill Slope ([18]; T330V): ~6.22
activation by D-fructose (Fmax, Hill slope, EC50 fit) [19]: no activity
activation by D-fructose (Fmax, Hill slope, EC50 fit) [20]: no activity
Hill Slope [21]: 0.98 (0.56 to 2.07)
EC50 [22]: 3.9 mM
Hill Slope ([22]; Q351A, 95% CI in parentheses): 1.89 (0.60 to 5.26)
activation by D-fructose (Fmax, Hill slope, EC50 fit) [23]: no activity
Hill Slope [24]: ~2.37
F max ([24]; ~ = CI not determined): ~0.20
activation by D-fructose (Fmax, Hill slope, EC50 fit) [25]: no activity
EC50 [26]: 15.3 mM
Hill Slope ([26]; Q445E, 95% CI in parentheses): 1.56 (0.68 to 3.75)
activation by D-fructose (Fmax, Hill slope, EC50 fit) [27]: no activity
EC50 [28]: ~0.1 mM
Hill Slope ([28]; F189Y, 95% CI in parentheses): 1.05 (0.44 to 2.15)
EC50 [29]: 20.3 mM
Hill Slope ([29]; Q445N, 95% CI in parentheses): 1.49 (0.79 to 2.76)
activation by D-fructose (Fmax, Hill slope, EC50 fit) [30]: no activity
activation by D-fructose (Fmax, Hill slope, EC50 fit) [31]: no activity
activation by D-fructose (Fmax, Hill slope, EC50 fit) [32]: no activity
activation by D-fructose (Fmax, Hill slope, EC50 fit) [33]: no activity
EC50 [34]: 2.01 mM
Hill Slope ([34]; Q445A): ~3.78
Fluorescence change relative to wild-type BmGr9 ([34]; Q445A, 100 mM D-fructose): more active than wild-type BmGr9
F max [35]: ~0.10
activation by D-fructose (printed in Hill Slope column) [35]: no activity
EC50 [36]: 1.32 mM
apparent affinity relative to wild-type ([36]; Gln443 to Glu): increased apparent affinity
Hill Slope ([36]; Q443E): ~2.57
Fluorescence change relative to wild-type BmGr9 ([36]; Q443E, 100 mM D-fructose): more active than wild-type BmGr9
EC50 [37]: 2.6 mM
apparent affinity relative to wild-type ([37]; Tyr332 to Phe): slightly increases the apparent affinity
Hill Slope ([37]; Y332F): ~2.36
activation by D-fructose (Fmax, Hill slope, EC50 fit) [38]: no activity
EC50 [39]: 4.07 mM
Hill Slope ([39]; Q443E_Q445R, 95% CI in parentheses): 2.02 (1.27 to 3.33)
Activation of BmGr9 (change in fluorescence) by sweet compound ([40]; 100 mM sweet compound, HEK293 cells with BmGr9 plus GCaMP vs GCaMP only): elicited a strong response; also recorded: significantly different activity
EC50 ([40]; EC50, WT BmGr9, 95% CI in parentheses): 8.71 mM
Hill coefficient ([40]; Fig. 1b dose-response, n = 8, 95% CI in parentheses): 2.3 (1.3–4.6)
Hill Slope ([40]; WT BmGr9, 95% CI in parentheses): 1.94 (1.48 to 2.58)
EC50 ([40]; half-maximal activation concentration (EC50), Fig. 1b dose-response, HEK293 cells with BmGr9 and GCaMP6s, n = 8, 95% CI in parentheses): 9 mM and 8.2 mM
F max [41]: ~0.14
Hill Slope [41]: ~1.43
EC50 [42]: ~100 mM
Hill Slope ([42]; T330S): ~3.03
activation by D-fructose (Fmax, Hill slope, EC50 fit) [43]: no activity
Hill Slope [44]: ~1.06
EC50 [45]: 5.5 mM
Hill Slope ([45]; P331A, 95% CI in parentheses): 1.43 (0.87 to 2.39)
activation by D-fructose (Fmax, Hill slope, EC50 fit) [46]: no activity
EC50 [47]: 8.3 mM
Hill Slope ([47]; Y332A, 95% CI in parentheses): 0.99 (0.37 to 2.17)
activation by D-fructose (Fmax, Hill slope, EC50 fit) [48]: no activity

Reference: paper PMC11062906 (Nature, 2024)
